Holding throughout (assay type): cell-based
Data set [1] relates to Escherichia coli. The data set is described as follows: Antimicrobial activity, MIC by standard broth microdilution. The conditions noted are these: Gram negative. Here is the method:
(§1) Antimicrobial activity was determined by the standard broth microdilution method by measuring the MIC values against diverse microorganisms. In brief, Luria-Bertani medium was used as a broth medium. 30 μl of sample (2 mg/ml) prepared from Example 1 and 270 μl of fluid medium were added to lane 1 well of 96-well microtiter plates and to remaining lanes of the wells, only 150 μl of medium was added thereto. 150 μl of sample solution in lane 1 was mixed with lane 2 to prepare diluted solution (×2). With similar diluting method to the above described method, serial dilution was performed to prepare 150 μl of diluted drug solution (×2) to the extent that the final drug concentration reached to the range from 1.6 to 200 μg/ml in respective well. 25 μl of the cell culture being grown to 10^6-10^8 colony forming unit/ml in 3 ml of broth was added to each well and the micro-titer plate was incubated for overnight at 37° C.
(Broth dilution looks for growth in wells or tubes with falling amounts of substance.)

The test system of data set [2] is Micrococcus luteus. The data set is described as above. The conditions noted are these: Gram-positive. How it is done:
as §1

For data set [3], the system named is Proteus mirabilis. Described as above. The conditions noted are these: Gram negative. How it is done: as §1
For data set [4], the system named is Staphylococcus aureus. The description is as above. The conditions noted are these: Gram-positive. Here is the method:
as §1

Data set [5] has as its system Pseudomonas aeruginosa. The data set is described as above. The conditions noted are these: Gram negative. Here is the method:
as §1

For data set [6], the system named is Staphylococcus epidermis. Described as above. Conditions: Gram-positive. Here is the method: as §1
Data set [7] concerns Salmonella typhimurium. Described as above. The conditions noted are these: Gram negative. How it is done:
as §1

In data set [8] the test system is Shigella dysentariae. The description is as above. Conditions: Gram negative. Here is the method: as §1
Data set [9] concerns Klebsiella pneumoniae. Described as above. The conditions noted are these: Gram negative. Here is the method: as §1
Data set [10] concerns Bacillus subtilis. The description is as above. The conditions noted are these: Gram-positive. Here is the method:
as §1

Data set [11] relates to erythrocyte. Here is the method: 3 ml of blood sample collected from healthy male was mixed with PBS (phosphate buffered saline, isotonic solution) with a ratio of 1:1 (v/v), centrifuged to remove buffy coat and blood plasma and washed with physiological saline solution three times to isolate pure erythrocyte. The erythrocyte was suspended in 20 ml of PBS and pre-incubated in water bath at 37° C. for 15 mins. […] of peptide solution was mixed with […] of erythrocyte solution in order to prepare various mixed solution containing various final concentrations of the peptides, i.e., 100, 50, […] and the solution was incubated in water bath at 37° C. for 15 mins. The supernatant was centrifuged with centrifuge and 100 ml of the supernatant was diluted with ImI of PBS to determine its absorbance at 550 nm. The percentage of hemolysis (%) was determined from the relative attenuation of the absorbance of sample compared with that of the suspension treated with 0.2% Triton X-100.

The test system of data set [12] is SK-MEL-2 (skin cancer cell line). The text has this: (§2) In order to confirm the anticancer activity of the analogues prepared by Example 1 on A549 (lung cancer cell line, ATCC, U.S.A.), A498 (kidney cancer cell line, Korean Cell Line Bank, Korea), HCT116 (colon carcinoma cell line, Korean Cell Line Bank, Korea), MKN45 (stomach cell line, Korean Cell Line Bank, Korea), NCI-H630 (liver cancer cell line, Korean Cell Line Bank, Korea), PC-3 (prostatic carcinoma cell line, Korean Cell Line Bank, Korea), SK-MEL-2 (skin cancer cell line, Korean Cell Line Bank, Korea) and SK-OV-3 (human solid cancer cell line, Korean Cell Line Bank, Korea), the standard microculture MTT method was performed with the procedure described in the literature (Angelina Quintero et al., J Pharm Pharmaceut Sci, Vol. 2, No. 3, pp 108-112, 1999; Ashtosh K. Pathak et al., J. Am Coll Nutr., Vol. 21, No. 5, pp 416-421, 2002). Each cell line was poured into 96 well microtiter plates and cultivated at 37° C. for 24 hrs. When the cell reached to exponential growth phase, the test sample was added to each plates and each cell was inoculated into the plates added with both of dissolved and non-dissolved DMSO to culture for 3 days. 50 μl of MTT (2 mg/ml) (M5655, SIGMA, U.S.A.) was added thereto and cultured for 3 hrs. The supernatant was removed and the wells were shaken weakly to dissolve formazan crystals. 150 μl of DMSO was added thereto. The non-treated well with cell was set to blank and the wells non-treated with drug were set to standard based on the cell viability. The UV absorbance was measured by microplate reader (SAFIRE, Tecan, Austria) to calculate the cell viability at 570 nm. The inhibition rate of cell growth was calculated by following Math FIG. 1. inhibition rate of cell growth (%)={1−(absorbance of treated cells/absorbance of non-treated cells)}×100 Math Figure 1 The IC value of each cell was calculated by the amount of drug causing to 50% reduction of the absorbance comparing with that of non-treated cells.

For data set [13], the system named is A549 (lung cancer cell line).
Text: as §2

For data set [14], the system named is HCT116 (colon carcinoma cell line).
Text: as §2

Data set [15] deals with SK-OV-3 (human solid cancer cell line).
Text: as §2

For data set [16], the system named is MKN45 (stomach cell line).
Text: as §2

pIC50: −log10 of the molar value. Where no end group is shown, it is not given here.

The text below walks through data of US20100105626A1, “Novel Analogues of Antimicrobial and Anticancer Peptide Synthesized and Produced from Gaegurin 5” (PROMEDITECH, INC, priority 2006, published 2010).

Take “FLGWLFKWASK-NH2 (C-terminus assumed) [W4,8-GGN5N11]”: the Minimal inhibitory concentration in data set [1] was 50 µg/mL; in data set [2] it was 3.2 µg/mL; in [3], greater than 200 µg/mL; in data set [4] it was 1.6 µg/mL; in data set [5], greater than 200 µg/mL; in data set [6], 3.2 µg/mL. Further, the Minimal inhibitory concentration in data set [7] was greater than 200 µg/mL; in [8], 12.5 µg/mL; in data set [9], 50 µg/mL; in data set [10], 3.2 µg/mL.

As for “FLGWLFKWASKVL-NH2 [W4,8-GGN5N13, F-L-G-W-L-F-K-W-A-S-K-V-L]”, the “hemolytic activity (in words)” value in [11] was “potent hemolytic activity”.

A word on the pIC50: it is the IC50 on a negative log10 scale, so that one unit is a factor of ten. Low readings indicate a high IC50, high ones a low IC50. Regarding “FLGWLFKWAWK-NH2 [model 27, F-L-G-W-L-F-K-W-A-W-K]”, the pIC50 in data set [12] is 4.85.

For “FLKWLFKWAKK-NH2 [model 26, F-L-K-W-L-F-K-W-A-K-K]”, the results for the pIC50 in [13], in data set [14] and in data set [15] were 4.84, 4.83 and 4.90, respectively. Also, the “hemolytic activity (in words)” value in data set [11] is “much less hemolysis than the others”.

As to “FLWWLFKWAWK-NH2 [model 28, F-L-W-W-L-F-K-W-A-W-K]”, the pIC50 in data set [16] is 4.86; in [13] it was 4.80; in data set [12], 4.88; in data set [14], 4.83; in data set [15] it was 4.84.
